Test results published in BigSolDB 2.1.

With Cc1nnc(C(C)C)n1[C@@H]1C[C@H]2CC[C@@H](C1)N2CC[C@H](NC(=O)C1CCC(F)(F)CC1)c1ccccc1 the solubility (mole fraction) (in DMF, 278.15 K) was 3.43e-05, the solubility (mole fraction) (in DMF, 283.15 K) was 5.31e-05 and the solubility (mole fraction) (in DMF, 288.15 K) was 8.04e-05. It also gave a solubility (mole fraction) (in DMF, 293.15 K) of 0.000117, a solubility (mole fraction) (in DMF, 298.15 K) of 0.000181 and a solubility (mole fraction) (in DMF, 303.15 K) of 0.000256. The solubility (mole fraction) (in DMF, 308.15 K) was 0.000364, the solubility (mole fraction) (in DMF, 313.15 K) was 0.000535 and the solubility (mole fraction) (in DMF, 318.15 K) was 0.000744. For the same compound, the solubility (mole fraction) (in DMF, 323.15 K) was 0.00105, the solubility (mole fraction) (in DMSO, 293.15 K) was 5.92e-05 and the solubility (mole fraction) (in DMSO, 298.15 K) was 8.77e-05. The solubility (mole fraction) (in DMSO, 303.15 K) was 0.000133, the solubility (mole fraction) (in DMSO, 308.15 K) was 0.000189 and the solubility (mole fraction) (in DMSO, 313.15 K) was 0.000273. It also gave a solubility (mole fraction) (in DMSO, 318.15 K) of 0.00038, a solubility (mole fraction) (in DMSO, 323.15 K) of 0.000539 and a solubility (mole fraction) (in ethanol, 278.15 K) of 0.000264. The solubility (mole fraction) (in ethanol, 283.15 K) was 0.00038, the solubility (mole fraction) (in ethanol, 288.15 K) was 0.0005 and the solubility (mole fraction) (in ethanol, 293.15 K) was 0.000715. For the same compound, the solubility (mole fraction) (in ethanol, 298.15 K) was 0.00099, the solubility (mole fraction) (in ethanol, 303.15 K) was 0.00142 and the solubility (mole fraction) (in ethanol, 308.15 K) was 0.00196. For the same compound, the solubility (mole fraction) (in ethanol, 313.15 K) was 0.00273, the solubility (mole fraction) (in ethanol, 318.15 K) was 0.0036 and the solubility (mole fraction) (in ethanol, 323.15 K) was 0.00458. It also gave a solubility (mole fraction) (in n-propanol, 278.15 K) of 0.00022, a solubility (mole fraction) (in n-propanol, 283.15 K) of 0.000327 and a solubility (mole fraction) (in n-propanol, 288.15 K) of 0.000454. The solubility (mole fraction) (in n-propanol, 293.15 K) was 0.000645, the solubility (mole fraction) (in n-propanol, 298.15 K) was 0.000911 and the solubility (mole fraction) (in n-propanol, 303.15 K) was 0.00126. For the same compound, the solubility (mole fraction) (in n-propanol, 308.15 K) was 0.00167, the solubility (mole fraction) (in n-propanol, 313.15 K) was 0.00222 and the solubility (mole fraction) (in n-propanol, 318.15 K) was 0.00296. For the same compound, the solubility (mole fraction) (in n-propanol, 323.15 K) was 0.00395, the solubility (mole fraction) (in water, 278.15 K) was 5.73e-06 and the solubility (mole fraction) (in water, 283.15 K) was 8.2e-06. The solubility (mole fraction) (in water, 288.15 K) was 1.15e-05, the solubility (mole fraction) (in water, 293.15 K) was 1.7e-05 and the solubility (mole fraction) (in water, 298.15 K) was 2.47e-05. The solubility (mole fraction) (in water, 303.15 K) was 3.5e-05, the solubility (mole fraction) (in water, 308.15 K) was 5e-05 and the solubility (mole fraction) (in water, 313.15 K) was 7.13e-05. It also gave a solubility (mole fraction) (in water, 318.15 K) of 9.89e-05 and a solubility (mole fraction) (in water, 323.15 K) of 0.000137.
